Results on twelve compounds are retold here after PubChem BioAssay (NCI).

What all share (assay): DTP human tumour cell line panel, 48 h
Assay [1] concerns NCI-H226 lung.
In assay [2] the test system is LOX IMVI melanoma.
Assay [3] deals with PC-3 prostate.
In assay [4] the test system is BT-549 breast.
Assay [5] deals with HS 578T breast.
Assay [6] has as its system CAKI-1 renal.
Assay [7] deals with SNB-75 CNS.
Assay [8] concerns MDA-MB-231 breast.
In assay [9] the test system is SW-620 colon.
Assay [10] concerns ACHN renal.

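48-hour exposure; five concentrations; linearly interpolated endpoints. GI50 = concentration required for 50% inhibition of growth. TGI: total growth inhibition.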 Some results are limits rather than exact numbers.

In the case of `CCOC(=O)N(Cc1cccs1)c1cc(OC)c(OC)c(OC)c1`, the concentration for total growth inhibition (TGI) is more than 100 µM in assay [1]; more than 100 µM in assay [2]; 98.9 µM in assay [3]; more than 100 µM in assay [4]; more than 100 µM in [5]; more than 100 µM in assay [6]. Moreover, the total growth inhibition concentration (TGI) in assay [7], in assay [8], in assay [9] and in assay [10] was more than 100 µM throughout.
On to `CCCNC(=O)c1cc(NC(=O)c2cc(NC(=O)/C=C/c3ccccc3)c(OC)c(OC)c2)c(OC)c(OC)c1`, for which the concentration for total growth inhibition (TGI) was 0.17 µM in [1]; 8.35 µM in [2]; 33.5 µM in assay [3]; 53.4 µM in [4]; 6.18 µM in assay [5]; 7.76 µM in assay [7]. Besides, the TGI is 6.27 µM in assay [8], more than 100 µM in assay [9] and 36.8 µM in assay [10].
`CCN(CC)CC(C)Nc1ccc([N+](=O)[O-])c2sc3ccccc3c(=O)c12` (stereo not given): the GI50 in assay [1] is 1.09 µM; in assay [2] it was 1.02 µM; in [3], 2.52 µM; in [4], 5.03 µM; in assay [5] it was 2.72 µM; in [6], 0.657 µM. The GI50 is 3.64 µM in assay [7], 2.16 µM in [8], 1.25 µM in assay [9] and 0.895 µM in assay [10]. Besides, the concentration for total growth inhibition (TGI) in [1] is 3.72 µM; in assay [2], 2.39 µM; in assay [3] it was more than 100 µM; in assay [4], 21.4 µM; in assay [5], 13.4 µM; in [6] it was 4.09 µM. Also, the total growth inhibition concentration (TGI) in assay [7] was 17.2 µM; in assay [8], 9.09 µM; in assay [9], 4.13 µM; in assay [10] it was 4.3 µM.
`N=c1c2c(C(N)=O)cn(C3OC(CO)C(O)C3O)c2ncn1O` (stereo not given): the TGI was 1.57 µM in [1]; 0.438 µM in [2]; 1.14 µM in assay [3]; 4.61 µM in assay [4]; 7.91 µM in [5]; 0.399 µM in [6]. In addition, the total growth inhibition concentration (TGI) in assay [7] stood at 4.85 µM; in [9], 0.497 µM; in [10] it was 0.311 µM.
For `CCOC(=O)CSc1nc(N)c2c(-c3ccc(OC)c(OC)c3)c3c(nc2n1)CCCC3`, the total growth inhibition concentration (TGI) was more than 100 µM in assay [2]; more than 100 µM in assay [3]; more than 100 µM in [4]; 35.6 µM in assay [5]; more than 100 µM in [6]; 32.6 µM in assay [7]. For the same compound, the TGI in [8], in [9] and in [10] was more than 100 µM each time.
On to `CCOC(=O)C1(C(=O)OCC)Nc2cccnc2N(C)N1`, for which the total growth inhibition concentration (TGI) in [1] was 35.3 µM; in assay [2], 52.6 µM; in assay [3] it was 67.5 µM; in [4], more than 100 µM; in assay [5] it was more than 100 µM; in assay [6], 36.1 µM. Moreover, the TGI in [7] was more than 100 µM; in [8], 40.4 µM; in assay [9], 69 µM.
For `CN1CC[C@@]2(c3cccc(O)c3)CC(=O)/C(=C/c3ccccc3)[C@H]1C2`, the total growth inhibition concentration (TGI) in assay [1] was determined as 42.5 µM; in [2] it was 3.46 µM; in assay [3] it was 14.4 µM; in assay [4] it was 26.7 µM; in [5], 9.81 µM; in [6], 15.4 µM. Also, the TGI stood at 7.09 µM in assay [7], 23.6 µM in assay [8], 10.1 µM in [9] and 22.6 µM in assay [10].
For `CCS(=O)(=O)Nc1ccc(Nc2c3ccccc3nc3ccccc23)c(OC)c1`, the TGI in [1] is 3.19 µM; in assay [2], 4.26 µM; in assay [6] it was 4.08 µM; in [7] it was 3.01 µM; in assay [9] it was 7.13 µM.
With `N=C(N)c1ccc(-c2ccc(-c3cc(Cl)cc(Cl)c3)o2)nc1`, the GI50 was 2.13 µM in assay [1]; 1.77 µM in assay [2]; 1.74 µM in assay [3]; 1.87 µM in assay [5]; 1.76 µM in assay [6]; 1.64 µM in assay [7]. Further, the GI50 in assay [8] is 1.65 µM; in assay [9], 1.78 µM; in assay [10], 1.81 µM. The TGI in [1] amounted to 5.19 µM; in assay [2], 3.41 µM; in assay [3], 3.25 µM; in assay [5] it was 3.93 µM; in assay [6], 3.35 µM; in assay [7], 3.15 µM. Also, the values for the total growth inhibition concentration (TGI) in assay [8], in assay [9] and in assay [10] were 3.3 µM, 3.41 µM and 3.36 µM, respectively.
For `CCC1C(C#N)=C(N)OC2=C1C(=O)CC(C)(C)C2` (stereo not given), the total growth inhibition concentration (TGI) in assay [2], in assay [3], in [4], in assay [5], in assay [6] and in assay [8] was more than 100 µM throughout. The concentration for total growth inhibition (TGI) in [9] and in assay [10] was more than 100 µM each time.
Consider `O=S(=O)(O)c1ccc2cccc(N=Nc3c(O)ccc4ccccc34)c2c1`, for which the TGI in [1], in assay [3], in assay [4], in assay [5], in assay [6] and in assay [7] was more than 100 µM in each case. Also, the total growth inhibition concentration (TGI) in assay [8], in assay [9] and in assay [10] was more than 100 µM each time.
For `COc1cc(/C=C/C(=O)c2ccc(NS(=O)(=O)c3cc([N+](=O)[O-])ccc3C)cc2)cc(OC)c1OC`, the TGI worked out at 8.74 µM in assay [1]; 9.36 µM in assay [2]; 19.5 µM in [3]; 14.4 µM in [4]; 17.3 µM in assay [6]; 14.2 µM in [7]. In addition, the values for the total growth inhibition concentration (TGI) in assay [8], in [9] and in [10] were 7.39 µM, 25.5 µM and 15.9 µM, respectively.
